Structures can show the parent of a compound that is named as a salt.
Test system: production of IgE antibody
Test: Evaluation of inhibitory effect on production of IgE antibody (mouse splenic B cells, LPS + IL-4, ELISA)
Type: cell-based
Conditions: B-cell, 168 h; test agent 10^−6 M; mouse (Balb/C) B cells cultured with LPS then mouse IL-4 for 7 days; IgE in culture supernatant by ELISA
Method: A spleen was enucleated from a mouse (Balb/C, male, aged 8 weeks) and shredded in 0.3% BSA/HBSS to prepare single cells by means of a 200-mesh screen. Further, the single cells were hemolyzed by 0.75% ammonium chloride-17 mM Tris solution to prepare a splenocyte suspension (1×10^7/ml) using RPMI 1640 medium/25 mM HEPES/0.3% BSA. After the suspension was reacted with a rat anti-mouse Thy-1,2 monoclonal antibody (product of Cedarlane Co.) at 4° C. for 1 hour, the reaction mixture was centrifuged, and the sediment cells were suspended again (1×10^7/ml, RPMI/HEPES/BSA). After the suspension was then reacted with a low-cytotoxic rabbit complement (product of Cedarlane Co.) at 37° C. for 1 hour, killed cells were removed by specific gravity centrifugation using lympholyte M (product of Cedarlane Co.) to obtain a B cell fraction as viable cells.
After B cells (10^5/0.2 ml/well) were cultured for a day together with LPS (E. coli 026:B6, product of DIFCO Co.) using a 96-well plate, mouse IL-4 (product of Genzyme Co.) was added to conduct culture further for 7 days.
Each test agent was added on the first day of the culture, and the amount of IgE in a culture supernatant was measured by ELISA after the culture, thereby calculating out the inhibitory effect of the agent on the production of an IgE antibody.

`COc1cc(/C=C/C=C/C(=O)N2CCN(CCCN3CCN(C(=O)/C=C/C=C/c4cc(OC)c(OC)c(OC)c4)CC3)CC2)cc(OC)c1OC` [Example 3, 1,3-bis[4-[(E,E)-5-(3,4,5-Trimethoxyphenyl)-2,4-pentadienoyl]-1-piperazinyl]propane Dihydrochloride] showed an inhibition at 1 µM of 100%.
Compound `COc1cc(-c2ccc(C(=O)N3CCN(CCCN4CCN(C(=O)c5ccc(-c6cc(OC)c(OC)c(OC)c6)cc5)CC4)CC3)cc2)cc(OC)c1OC` [Example 5, 1,3-bis[4-[4-(3,4,5-Trimethoxyphenyl)-benzoyl]-1-piperazinyl]propane Dihydrochloride] has an inhibition at 1 µM of 95%.
Compound `COc1cc(C#C/C=C/C(=O)N2CCN(CCCN3CCN(C(=O)/C=C/C#Cc4cc(OC)c(OC)c(OC)c4)CC3)CC2)cc(OC)c1OC` [Example 6, 1,3-bis[4-[(E)-5-(3,4,5-Trimethoxyphenyl)-2-penten-4-ynoyl]-1-piperazinyl]propane Dihydrochloride] has an inhibition at 1 µM of 95%.
`CC(C)(C)c1ccc(/C=C/C=C/C(=O)N2CCN(CCCCCCCCN3CCN(C(=O)/C=C/C=C/c4ccc(C(C)(C)C)cc4)CC3)CC2)cc1` [Example 12, 1,8-bis[4-[(E,E)-5-(4-tert-Butylphenyl)-2,4-pentadienoyl]-1-piperazinyl]octane Dihydrochloride] was tested, and the inhibition at 1 µM was 90%.
Compound `CSc1ncccc1/C=C/C=C/C(=O)N1CCN(CCCCCCCCN2CCN(C(=O)/C=C/C=C/c3cccnc3SC)CC2)CC1` [Example 13, 1,8-bis[4-[(E,E)-5-(2-Methylthio-3-pyridyl)-2,4-pentadienoyl]-1-piperazinyl]octane Dihydrochloride] has an inhibition at 1 µM of 95%.
`COc1cc(-c2ccc(C(=O)N3CCN(Cc4ccc(CN5CCN(C(=O)c6ccc(-c7cc(OC)c(OC)c(OC)c7)cc6)CC5)cc4)CC3)cc2)cc(OC)c1OC` [Example 16, 1,4-bis[[4-[4-(3,4,5-Trimethoxyphenyl)benzoyl]-1-piperazinyl]methyl]benzene Dihydrochloride] was tested, and the inhibition at 1 µM was 65%.
Work on `O=C(/C=C/c1ccc2ccccc2c1)N1CCN(Cc2cccc(CN3CCN(C(=O)/C=C/c4ccc5ccccc5c4)CC3)n2)CC1` [Example 20, 2,6-bis[[4-[(E)-3-(2-Naphthyl)-2-propenoyl]-1-piperazinyl]methyl]pyridine] yielded an inhibition at 1 µM of 75%.
With `COc1cc(-c2ccc(C(=O)N3CCCN(CCCN4CCCN(C(=O)c5ccc(-c6cc(OC)c(OC)c(OC)c6)cc5)CC4)CC3)cc2)cc(OC)c1OC` [Example 23, 1,1′-Trimethylenedi[4-[4-(3,4,5-trimethoxyphenyl)benzoyl]hexahydro-1,4-diazepine]dihydrochloride] the inhibition at 1 µM was 85%.
Compound `COc1cc2c(cc1OC)C(C)(C)C(/C=C/C(=O)N1CCC(CCCC3CCN(C(=O)/C=C/C4=Cc5cc(OC)c(OC)cc5C4(C)C)CC3)CC1)=C2` [Example 27, 1,3-bis[1-[(E)-3-(5,6-Dimethoxy-1,1-dimethyl-2-indenyl)-2-propenoyl]-4-piperidinyl]propane] has an inhibition at 1 µM of 100%.
Work on `COc1cc(-c2cc(C(=O)N3CCC(CC(CC4CCN(C(=O)c5ccc(C)c(-c6cc(OC)c(OC)c(OC)c6)c5)CC4)N(C)C)CC3)ccc2C)cc(OC)c1OC` [Example 30, 1,3-bis[1-[4-Methyl-3-(3,4,5-trimethoxyphenyl)benzoyl]-4-piperidinyl]-2-(dimethylamino)propane Hydrochloride] yielded an inhibition at 1 µM of 100%.
Work on `COc1cc(C#C/C=C/C(=O)N2CCC(CC(CC3CCN(C(=O)/C=C/C#Cc4cc(OC)c(OC)c(OC)c4)CC3)CN(C)C)CC2)cc(OC)c1OC` [Example 33, 1,3-bis[1-[(E)-5-(3,4,5-Trimethoxyphenyl)-2-penten-4-ynoyl]-4-piperidinyl]-2-[(dimethylamino)methyl]propane Hydrochloride] yielded an inhibition at 1 µM of 100%.
Compound `COc1cc2ccc(/C=C/C(=O)N3CCC(CN(C)CC4CCN(C(=O)/C=C/c5ccc6cc(OC)c(OC)c(OC)c6c5)CC4)CC3)cc2c(OC)c1OC` [Example 36, N,N-bis[[1-[(E)-3-(6,7,8-Trimethoxy-2-naphthyl)-2-propenoyl]-4-piperidinyl]methyl]methylamine Hydrochloride] has an inhibition at 1 µM of 60%.
Work on `COc1cc(-c2ccc(C(=O)N3CCC(N(C)CCN(C)C4CCN(C(=O)c5ccc(-c6cc(OC)c(OC)c(OC)c6)cc5)CC4)CC3)cc2)cc(OC)c1OC` [Example 37, N,N′-bis[1-[4-(3,4,5-Trimethoxyphenyl)benzoyl]-4-piperidinyl]-N,N′-dimethylethylenediamine Dihydrochloride] yielded an inhibition at 1 µM of 100%.
For `COc1ccc(C(=O)N2CCC(CN3CCN(CC4CCN(C(=O)c5ccc(OC)c(-c6cc(OC)c(OC)c(OC)c6)c5)CC4)CC3)CC2)cc1-c1cc(OC)c(OC)c(OC)c1` [Example 40, 1,4-bis[[1-[4-Methoxy-3-(3,4,5-trimethoxyphenyl)benzoyl]-4-piperidinyl]methyl]piperazine Dihydrochloride], the inhibition at 1 µM was 75%.

From patent US6645957B2, “Cyclic amide compound” (Kowa Co., Ltd., priority 1998, dated 2003)
